Results reported in ChEMBL document CHEMBL3352240, “Upregulation of both heme oxygenase-1 and ATPase inhibitory factor 1 renders tumoricidal activity by synthetic flavonoids via depleting cellular ATP” (2014).
Active and inactive are the calls of the source. The calls are words filed in the database; no cut-off is given here.

Legend:
MRC5 [1] = test: Induction of ATPIF-1 expression in human MRC5 cells […] after 24 hrs by immunoblotting analysis relative to control; format: functional
MRC5 [2] = test: Induction of HO-1 expression in human MRC5 cells […] after 24 hrs by immunoblotting analysis relative to control; format: functional
HCT-116 [3] = test: Induction of ATPIF-1 expression in human HCT116 cells at 20 uM after 48 hrs relative to vehicle-treated control; format: functional, cell-based
MRC5 [4] = test: Induction of apoptosis in human MRC5 cells assessed as downregulation of Bcl2 protein expression in presence of H2O2 by Western blotting method; format: functional, cell-based
HCT-116 [5] = test: Cytotoxicity against human HCT116 cells at 30 uM after 24 hrs by MTT assay in presence of HO-1 inhibitor siRNA; format: functional, cell-based
HT-29 [6] = test: Induction of ATPIF-1 expression in human HT-29 cells at 20 uM after 48 hrs relative to vehicle-treated control; format: functional, cell-based
MRC5 [7] = test: Induction of apoptosis in human MRC5 cells assessed as downregulation of Bcl-XL protein expression in presence of H2O2 by Western blotting method; format: functional, cell-based
HCT-116 [8] = test: Induction of apoptosis in human HCT116 cells assessed as PARP cleavage at 20 uM after 48 hrs by Western blotting method; format: functional, cell-based
HCT-116 [9] = test: Induction of cellular energetics impairment in human HCT116 cells assessed as cellular ATP level by Cell Titre-Glo assay relative to vehicle-treated control; format: functional
HT-29 [10] = test: Cytotoxicity against human HT-29 cells at 20 uM after 24 to 48 hrs by MTT assay; format: functional, cell-based
HCT-116 [11] = test: Cytotoxicity against human HCT116 cells after 24 to 48 hrs by MTT assay; format: functional, cell-based
HCT-116 [12] = test: Cytotoxicity against human HCT116 cells at 30 uM after 24 hrs by MTT assay in presence of HO-1 inhibitor ZnPP; format: functional, cell-based
HCT-116 [13] = test: Cytotoxicity against human HCT116 cells at 20 uM after 24 to 48 hrs by MTT assay; format: functional, cell-based
HT-29 [14] = test: Cytotoxicity against human HT-29 cells at 30 uM after 24 hrs by MTT assay in presence of HO-1 inducer hemin; format: functional, cell-based
HCT-116 [15] = test: Cytotoxicity against human HCT116 cells at 10 to 50 uM by MTT assay; format: functional, cell-based; settings: TDE = time-dependent effect
HT-29 [16] = test: Induction of mitochondrial morphology changes in human HT-29 cells assessed as mitochondria with electron dense phenotype and well preserved cristae by microscopic analysis; format: functional, cell-based
HT-29 [17] = test: Induction of mitochondrial morphology changes in human HT-29 cells assessed as lipid bodies near mitochondria by microscopic analysis; format: functional, cell-based
HT-29 [18] = test: Induction of cellular energetics impairment in human HT-29 cells assessed as cellular ATP level by Cell Titre-Glo assay relative to vehicle-treated control; format: functional
HCT-116 [19] = test: Induction of mitochondrial morphology changes in human HCT116 cells assessed as swelling and damaged mitochondria by microscopic analysis; format: functional, cell-based
MRC5 [20] = test: Cytotoxicity against human MRC5 cells by MTT assay in presence of H2O2; format: functional, cell-based
MRC5 [21] = test: Cytotoxicity against human MRC5 cells at 30 uM by MTT assay in presence of H2O2; format: functional, cell-based
HT-29 [22] = test: Cytotoxicity against human HT-29 cells at 10 to 50 uM after 24 to 48 hrs by MTT assay; format: functional, cell-based
HCT-116 [23] = test: Cytotoxicity against human HCT116 cells at 10 to 50 uM after 24 to 48 hrs by MTT assay; format: functional, cell-based

Row | SMILES | Ratio (MRC5 [1]) | Ratio (MRC5 [2]) | also measured
1 | C=C[C@@H](c1ccc(O)c(OC)c1)c1c(OC)cc(OC)c2c(=O)cc(-c3ccccc3)oc12 | 2.3 | 2.2 | 
2 | C=C[C@@H](c1ccc(O)c(OC)c1)c1c(OC)cc(O)c2c(=O)cc(-c3ccccc3)oc12 | 1.8 | 3.4 | Activity (HCT-116 [3]): Active; Activity (MRC5 [4]): Active; Activity (HCT-116 [5]): inactive; Activity (HT-29 [6]): Active; Activity (MRC5 [7]): Active; Activity (HCT-116 [8]): Active; Activity (HCT-116 [9]): 37.3%; Activity (HT-29 [10]): Active; Activity (HCT-116 [11]): Dose-dependent effect; Activity (HCT-116 [12]): inactive; Activity (HCT-116 [13]): Active; Activity (HT-29 [14]): Active; Activity (HCT-116 [15]): tde; Activity (HT-29 [16]): Active; Activity (HT-29 [17]): Active; Activity (HT-29 [18]): 37.8%; Activity (HCT-116 [19]): Active; Activity (MRC5 [20]): Active
3 | C=C[C@@H](c1ccc(OCc2ccccc2)c(OC)c1)c1c(OCc2ccccc2)cc(OCc2ccccc2)c2c(=O)cc(-c3ccccc3)oc12 | 2 | 0.6 | 
4 | C=C[C@@H](c1ccc(OCc2ccccc2)c(OC)c1)c1c(O)cc(OCc2ccccc2)c2c(=O)cc(-c3ccccc3)oc12 | 1.5 | 1.1 | 
5 | C=C[C@@H](c1ccc(OC)c(OC)c1)c1c(O)cc(OC)c2c(=O)cc(-c3ccccc3)oc12 | 1.9 | 1.1 | 
6 | C=C[C@@H](c1ccc(OC)cc1)c1c(O)cc(O)c2c(=O)cc(-c3ccccc3)oc12 | 1.8 | 1.1 | Activity (MRC5 [20]): inactive
7 | C=C[C@@H](c1ccc(O)c(OC)c1)c1c(O)cc(OC)c2c(=O)cc(-c3ccccc3)oc12 | 1.6 | 1.8 | 
8 | C=C[C@@H](c1ccc(OC)c(OC)c1)c1c(O)cc(O)c2c(=O)cc(-c3ccccc3)oc12 | 1.3 | 1.6 | 
9 | C=C[C@@H](c1ccc(O)c(OC)c1)c1c(O)cc(O)c2c(=O)cc(-c3ccc(OC)cc3)oc12 | 1.4 | 2.3 | 
10 | C=C[C@@H](c1ccc(OC)c(OC)c1)c1c(OC)cc(OC)c2c(=O)cc(-c3ccccc3)oc12 | 1.6 | 1.5 | 
11 | C=C[C@@H](c1ccccc1)c1c(O)cc(O)c2c(=O)cc(-c3ccccc3)oc12 | 1.5 | 2.4 | 
12 | C=C[C@@H](c1ccc(O)c(OC)c1)c1c(O)cc(O)c2c(=O)cc(-c3ccccc3)oc12 | 2.3 | 1.7 | Activity (MRC5 [21]): Active
13 | C=C[C@@H](c1ccc(OC)c(OC)c1)c1c(OC)cc(O)c2c(=O)cc(-c3ccccc3)oc12 | 2 | 2.2 | 
14 | COc1cc(/C=C/COc2cc(OCc3ccccc3)c3c(=O)cc(-c4ccccc4)oc3c2)ccc1OCc1ccccc1 | 1 | 3 | Activity (HT-29 [22]): inactive; Activity (HCT-116 [9]): 79.3%; Activity (MRC5 [21]): inactive; Activity (HT-29 [18]): 99.2%; Activity (HCT-116 [23]): inactive; Activity (MRC5 [20]): inactive
